Results as given in patent publication US20220313780A1, “METHODS AND COMPOSITIONS FOR TREATING INFLAMMATORY CONDITIONS” (THE SCRIPPS RESEARCH INSTITUTE, priority 2019, published 2022).
“Also recorded” adds a separate entry of the source.

System: caspase 1
Assay: Caspase 1 activity assay in PMA-differentiated THP1 cells treated with LPS and ATP
Type: cell-based, human
Conditions: for caspase 1 activity: peptide 50 μM for 60 min before LPS (1 μg/mL) and ATP (5 mM), THP1 cells
Protocol: THP1-null (THP1) cells were plated at a final concentration of 1×10^6/mL in 96 well plates and incubated with PMA (0.5 μM) for 3 hours 37° C. in supplemented RPMI. Media was subsequently changed every 24 hours for 3 days. Various subsets of wells were selected and cells were treated for 60 minutes at 37° C. in serum-free RPMI with: (A) APC (4 μg/mL), TR47 (50 μM-2 nM), scrTR47 (50 μM), SFLLRN (50 μM), TFLLRN (50 μM); (B) P3R (50 μM-500 nM), P3K (50 μM); (C) APC (4 or 1 μg/mL), TR47 (8 nM), P3R (500 nM) or TR47+P3R (8 nM and 500 nM, respectively); (D) TR47 (0-128 nM) (●)±P3R (500 nM) (□); (E) P3R (0-500 nM) (●)±TR47 (1 nM) (□). Following DPBS wash, cells were incubated with LPS (1 μg/mL) for 3 hours at 37° C. in serum-free RPMI. After a DPBS wash, cells were incubated with ATP (5 mM) in the presence or absence of 10 μM YVAD (caspase 1 inhibitor) or 2.5 μM ZVAD (pan-caspase inhibitor) for 45 minutes at 37° C., prior to performing the caspase 1 activity assay following manufacturer's directions measuring luminescence (relative luminescent units, RLU). (D & E) Experimental caspase 1 activity was normalized to YVAD (caspase 1 inhibitor) luminescence units. (A-E) Data points represent mean±S.D. of at least 3 independent experiments. *P<0.05 (vs. LPS+ATP); #P<0.05 (vs. LPS+ATP & APC, TR47 or P3R); **P<0.005 (vs. LPS+ATP & TR47+500 nM P3R); n.s. not significant.
THP1 cells were plated at a final concentration of 1×10^6/mL in 96 well plates and incubated with PMA (0.5 μM) for 3 hours 37° C. in supplemented RPMI. Media was subsequently changed every 24 hours for 3 days. Selected wells were treated with APC (4 μg/mL), (A) 50 μM or (B) 2 μM of P3R, P3Rm, P3R 51-65, P3R 51-59, P3R 54-59 or P3R 59-65 for 1 hour, washed with DPBS, and incubated with LPS (1 μg/mL) for 3 hours at 37° C. in serum-free RPMI. Cells were washed with DPBS and incubated with ATP (5 mM) in the presence or absence of 10 μM YVAD (caspase 1 inhibitor; C1i) or 2.5 μM ZVAD (pan-caspase inhibitor; pCi) for 45 minutes at 37° C., prior to performing the caspase 1 activity assay following manufacturer's directions measuring luminescence (relative luminescent units, RLU). (C) Diagram showing the PAR3 sequence, peptide sequences and relative (anti-inflammatory) activity. These include sequences of P3R (SEQ ID NO:4), P3Rm (SEQ ID NO:8), P3R 51-65 (SEQ ID NO:9), P3R 51-59 (SEQ ID NO:10), P3R 54-59 (SEQ ID NO:54) and P3R 59-65 (SEQ ID NO:55).
THP1 cells were plated at a final concentration of 1×10^6/mL in 96 well plates and incubated with PMA (0.5 μM) for 3 hours 37° C. in supplemented RPMI. Media was subsequently changed every 24 hours for 3 days. Selected wells were treated with APC (4 μg/mL), TR47, in (A) 9-mer (TR47 9-mer; NPNDKYEPF (SEQ ID NO:36)) or Ac-TR47 (Acylated TR47) at either 50 μM or 10 nM or (B) 50 μM of 16-mer-TR47, 8-mer-TR47, 6-mer-TR47, TR47 N−1, TR47 N−2, TR47 N−5, TR47AQ, TR47AD, TR47AA or TR48-54 for 1 hour, washed with DPBS, and incubated with LPS (1 μg/mL) for 3 hours at 37° C. in serum-free RPMI. Cells were washed with DPBS and incubated with ATP (5 mM) in the presence or absence of 10 μM YVAD (caspase 1 inhibitor; C1i) or 2.5 μM ZVAD (pan-caspase inhibitor; pCi) for 45 minutes at 37° C., prior to performing the caspase 1 activity assay following manufacturer's directions measuring luminescence (relative luminescent units, RLU). #P<0.001 (vs. LPS+ATP), **P<0.005 (vs. LPS+ATP), * (P<0.05 vs. LPS+ATP). (C) Diagram showing the PAR1 sequence, peptide sequences and relative (anti-inflammatory) activity. These include sequences of TR47 (SEQ ID NO:7), Ac-TR47 (SEQ ID NO:56), 16-mer-TR47 (SEQ ID NO:43), 9-mer-TR47 (SEQ ID NO:36), 8-mer-TR47 (SEQ ID NO:35), 6-mer-TR47 (SEQ ID NO:33), TR47 N−1 (SEQ ID NO:47), TR47 N−2 (SEQ ID NO:51), TR47 N−5 (SEQ ID NO:48), TR47AQ (SEQ ID NO:49), TR47AD (SEQ ID NO:52), TR47AA (SEQ ID NO:50) and TR48-54 (SEQ ID NO:53). […]

Sequence | normalized caspase 1 activity (P3R at ≤500 nM with 1 nM TR47) | caspase 1 activity | caspase 1 activity normalized to caspase 1 inhibited conditions (TR47 at <10 nM in the presence of 500 nM P3R)
GAPPNSFEEFPFSALEGWTGATIT [P3R, PAR3-derived 24-mer peptide] | a significant reduction in normalized caspase 1 activity was observed | reduced caspase 1 activity; also recorded: a significant reduction in caspase 1 activity was observed | 
NPNDKYEPFWEDEEKNESGL [TR47, PAR1-derived 20 amino acid peptide] |  | similarly reduced caspase 1 activity | a reduction in caspase 1 activity was observed
